Measurements as given in US20070039241A1, “Floatable granular substrate for culturing plant material” (GSF - Forschungszentrum fur Umwelt und Gesundheit, priority 2003, published 2007).

Test system: barley seedlings
Test: Heavy metal uptake of barley seedlings on floating culture substrate or agar substrate (ICP-MS of leaves and roots)
Type: in vivo, Hordeum vulgare cv. Barke
Details: for Concentration of heavy metal ions in barley seedlings, Shoot, Agar: grown on agar; for Concentration of heavy metal ions in barley seedlings, Shoot, Agar / Concentration of heavy metal ions in barley seedlings, Root, Floatable Substrate / Concentration of heavy metal ions in barley seedlings, Shoot, Floatable Substrate: 6 day old plants; for Concentration of heavy metal ions in barley seedlings, Root, Floatable Substrate / Concentration of heavy metal ions in barley seedlings, Shoot, Floatable Substrate: grown on floatable substrate; for Factor by which concentration in the roots was increased compared to shoot tissue: seedlings grown on floatable substrate
Experimental: MS-basal Medium or Hoagland's medium was supplemented with heavy metals as follows: stock solutions of Hg Cl2 (0.1 M) or Cd(NO3)2•4H2O (0.1 M) were applied to the autoclaved medium when it had cooled to about 55° C. such that final heavy metal-ion concentrations of 10, 20, 30 and 40 μM were obtained.
Agar culturing substrate was prepared by adding 1.5 wt/vol % agar (Sigma) to Hoagland's or MS-basal medium. After heating to 100° C., respective amounts of heavy metal salts were added when the medium had cooled down to […]. Then the mixture was poured into Phytotray II™ culture vessels (Sigma) and left to cool for subsequent use.
Barley caryopses prepared and seeded onto a floatable substrate layer as in Example 1. Alternatively, the caryopses were directly placed on culturing agar as described above.
Seedlings were grown as described, and leaves and roots of 6 day old plants were harvested and weighed to determine the fresh weight. Samples were shock-frozen in liquid nitrogen and stored at −80° C.
Total mercury and cadmium content of leaves and roots was determined by electrothermal vaporization inductively coupled plasma-mass spectrometry (Michalke et al., 1997).

O.O.O.O.O=[N+]([O-])[O-].O=[N+]([O-])[O-].[Cd+2] [Cd^2+, Cd(NO3)2•4H2O]
Concentration of heavy metal ions in barley seedlings, Shoot, Agar (added concentration 10 μM): 15 µM
Concentration of heavy metal ions in barley seedlings, Shoot, Agar (added concentration 20 μM): 21 µM
Concentration of heavy metal ions in barley seedlings, Shoot, Agar (added concentration 30 μM): 41 µM
Concentration of heavy metal ions in barley seedlings, Shoot, Agar (added concentration 40 μM): 53 µM
Concentration of heavy metal ions in barley seedlings, Root, Floatable Substrate (added concentration 10 μM): 479 µM
Concentration of heavy metal ions in barley seedlings, Shoot, Floatable Substrate (added concentration 10 μM): 4 µM
Concentration of heavy metal ions in barley seedlings, Root, Floatable Substrate (added concentration 20 μM): 1270 µM
Concentration of heavy metal ions in barley seedlings, Shoot, Floatable Substrate (added concentration 20 μM): 27 µM
Concentration of heavy metal ions in barley seedlings, Root, Floatable Substrate (added concentration 30 μM): 1450 µM
Concentration of heavy metal ions in barley seedlings, Shoot, Floatable Substrate (added concentration 30 μM): 27 µM
Concentration of heavy metal ions in barley seedlings, Root, Floatable Substrate (added concentration 40 μM): 2880 µM
Concentration of heavy metal ions in barley seedlings, Shoot, Floatable Substrate (added concentration 40 μM): 59 µM
Factor by which concentration in the roots was increased compared to shoot tissue: 60

[Cl][Hg][Cl] [Hg^2+, Hg Cl2]
Concentration of heavy metal ions in barley seedlings, Shoot, Agar (added concentration 10 μM): 62 µM
Concentration of heavy metal ions in barley seedlings, Shoot, Agar (added concentration 20 μM): 171 µM
Concentration of heavy metal ions in barley seedlings, Shoot, Agar (added concentration 30 μM): 254 µM
Concentration of heavy metal ions in barley seedlings, Shoot, Agar (added concentration 40 μM): 252 µM
Concentration of heavy metal ions in barley seedlings, Root, Floatable Substrate (added concentration 10 μM): 697 µM
Concentration of heavy metal ions in barley seedlings, Shoot, Floatable Substrate (added concentration 10 μM): 54 µM
Concentration of heavy metal ions in barley seedlings, Root, Floatable Substrate (added concentration 20 μM): 851 µM
Concentration of heavy metal ions in barley seedlings, Shoot, Floatable Substrate (added concentration 20 μM): 144 µM
Concentration of heavy metal ions in barley seedlings, Root, Floatable Substrate (added concentration 30 μM): 2060 µM
Concentration of heavy metal ions in barley seedlings, Shoot, Floatable Substrate (added concentration 30 μM): 239 µM
Concentration of heavy metal ions in barley seedlings, Root, Floatable Substrate (added concentration 40 μM): 2430 µM
Concentration of heavy metal ions in barley seedlings, Shoot, Floatable Substrate (added concentration 40 μM): 296 µM
Factor by which concentration in the roots was increased compared to shoot tissue: 10
